Patent US20110263642A1, “METHODS FOR TREATMENT OF MULTIPLE SCLEROSIS” (FibroGen, Inc., priority 2008, published 2011)
Read-outs that look alike come from different tables or passages of the source.

Columns and labels:
[1] = test system: Oligodendrocytes (MO3.13 cells); experiment: Ceramide-induced cell death of oligodendrocytes, Calcein AM viability; assay type: cell-based; details: compound 20 μM, non-ceramide control = 100
Source text: (See e.g., Craighead et al. (2000) Neurosci Lett. 278:125-8; Jana et al. (2007) J Neuroimmune Pharmacol. 2:184-93; Jana et al. (2009) J Neurol Sci. 278:5-15; Singh et al. (1998) J Biol. Chem. 273:20354-62.) In this model, addition of ceramide to cultured oligodendrocytes results in oxidative stress-induced cell death (i.e. apoptosis). The effect of compounds and methods of the present invention on the ability to improve oligodendrocyte viability following ceramide challenge was examined as follows. Oligodendrocytes (MO3.13 cells; Cedarlane Laboratories, Burlington, N.C.) were plated in 96-well culture dishes at a density of 4000 cells per well and cultured at 37° C., 10% CO2 in DMEM containing L-glutamine, sodium pyruvate, and 25 mM glucose (Mediatech Inc., Manassas, Va.) and supplemented with 10% FBS (Invitrogen Corporation, Carlsbad, Calif.). The next day, the plating media was removed and replaced with DMEM containing L-glutamine (Invitrogen Corporation, Carlsbad, Calif.) and supplemented with 5.5 mM glucose. Cells were then treated with vehicle (0.015% DMSO) or ceramide (Sigma-Aldrich, St. Louis, Mo.) plus vehicle (0.05% DMSO) or a compound of the invention (20 μM).
For cells treated longer than 3 days, half the media was removed after the third day of treatment and replaced with an equal volume of fresh treatment media containing vehicle (0.015% DMSO) or ceramide plus vehicle (0.05% DMSO) or a compound of the invention.
Cell viability was assessed 3, 4, and 5 days after treatment using the following protocol. Treatment media was removed from the cells and 100 ul of 1.67 uM Calcein AM reagent (Invitrogen Corporation, Carlsbad, Calif.) prepared in DMEM containing L-glutamine (Invitrogen Corporation, Carlsbad, Calif.) and supplemented with 5.5 mM glucose was added to each well. Cells were returned to 37° C. in a 10% CO2 incubator for approximately 30 minutes before assessing fluorescence (Ex 485 nm/Em 538 nm) using a microplate reader (Molecular Devices, Sunnyvale, Calif.). Images were taken of representative wells using a fluorescent microscope equipped with a camera (Nikon, Melville, N.Y.) and imaging software (Nikon, Melville, N.Y.).

[2] = test system: EAE animal model of chronic progressive multiple sclerosis; experiment: Chronic progressive EAE induced by MOG35-55 and pertussis toxin in mice, neurological scoring to day 35; assay type: in vivo, C57BL/6 mice
Source text: A chronic progressive model of EAE is an accepted animal model of human chronic progressive multiple sclerosis (MS). In this model, induction of chronic progressive EAE occurs following injections of myelin oligodendrocyte glycoprotein (MOG). Approximately 8 to 14 days after injection of MOG, animals develop chronic progressive paralysis similar to that observed in humans with chronic progressive MS.
Female C57BL/6 mice (8-10 weeks old) were used in this study (Taconic Farm, CA). Compounds of the present invention were formulated in 0.5% carboxymethyl cellulose (CMC) with 0.1% Polysorbate 80 to achieve a final concentration of either 1.2 mg/ml or 4.0 mg/ml. FTY-720 was also formulated in 0.5% carboxymethyl cellulose (CMC) with 0.1% Polysorbate 80 to achieve a final concentration of 2.0 mg/ml.
Induction of chronic progressive EAE by injection with myelin oligodendrocyte glycoprotein (MOG) was performed as follows. Mice were injected subcutaneously with 200 μg of myelin oligodendrocyte glycoprotein (MOG35-55) peptide emulsion in both sides of their pectoral regions (50 μl each side). At 8 hours and 48 hr after immunization with MOG, animals were injected intraperitoneally with 400 ng of pertussis toxin (PT) in 100 μl of saline. Control mice received both injections with an equivalent volume of saline without MOG or PT.
[…] FTY-720 (10 mg/kg) was used in this study as a positive control and was administered daily from day 0 to day 35.
Neurological scoring was performed daily from day 7 to day 35 following MOG injection. Grading of disease severity (i.e., disease score) was based on the following observations performed by two different observers: 0=no abnormality; 1=distal weakness of the tail (limp tail); 2=limp tail and weakness of hind legs (mild paraparesis); 3=limp tail and complete paralysis of hind legs or paralysis in one of one front leg and one hind leg (moderate paraparesis); 4=limp tail, complete hind leg and partial front leg paralysis (moderate quadraparesis); 5=complete hind and front leg paralysis (moribund). Analysis of variance (ANOVA) was performed on data from the measured (neurological score) parameters. p value≦0.05 were considered significant.

[3] = 72 h, ceramide 2.75 μM, read-out: % Viable at Day 3
[4] = 96 h, ceramide 2.75 μM, read-out: % Viable at Day 4
[5] = 120 h, ceramide 2.75 μM, read-out: % Viable at Day 5
[6] = 72 h, ceramide 2.25 μM, read-out: % Viable at Day 3
[7] = 96 h, ceramide 2.25 μM, read-out: % Viable at Day 4
[8] = 120 h, ceramide 2.25 μM, read-out: % Viable at Day 5

Compound	viability at 20 µM [1, 3] [%]	viability at 20 µM [1, 4] [%]	viability at 20 µM [1, 5] [%]	viability at 20 µM [1, 6] [%]	viability at 20 µM [1, 7] [%]	viability at 20 µM [1, 8] [%]	development of EAE disease (positive control) ([2]; 10 mg/kg daily, day 0 to day 35)	No. of Animals Showing No Disease Activity ([2]; through day 35, FTY-720 (Table 3: 10 mg/kg/d, daily))
O=C(O)CNC(=O)c1c(O)c2ccc(-c3ccc(Oc4ccccc4)cc3)cc2oc1=O [Compound J, {[4-Hydroxy-2-oxo-7-(4-phenoxy-phenyl)-2H-chromene-3-carbonyl]-amino}-acetic acid]	70	36	22	–	–	–	–	–
CC1(C)C(=O)C(C(=O)NCC(=O)O)=C(O)c2cc(Cl)ccc21 [Compound N, [(7-Chloro-1-hydroxy-4,4-dimethyl-3-oxo-3,4-dihydro-naphthalene-2-carbonyl)-amino]-acetic acid]	82	67	67	–	–	–	–	–
O=C(O)CNC(=O)c1c(O)c2cccn2n(Cc2ccc(C(F)(F)F)cc2)c1=O [Compound G, {[4-Hydroxy-2-oxo-1-(4-trifluoromethyl-benzyl)-1,2-dihydro-pyrrolo[1,2-b]pyridazine-3-carbonyl]-amino}-acetic acid]	–	–	–	94	86	80	–	–
O=C(O)CNC(=O)c1ncc2cc(Oc3ccccc3)ccc2c1O [Compound F, [(4-Hydroxy-7-phenoxy-isoquinoline-3-carbonyl)-amino]-acetic acid]	72	53	51	85	66	62	–	–
COc1cccc(Oc2cccc3c(O)c(C(=O)NCC(=O)O)ncc23)c1 [Compound E, {[4-Hydroxy-8-(3-methoxy-phenoxy)-isoquinoline-3-carbonyl]-amino}-acetic acid]	84	74	71	–	–	–	–	–
O=C(O)CNC(=O)c1c(O)c2cc(Cl)cn2n(Cc2ccc(Cl)cc2)c1=O [Compound I, {[6-Chloro-1-(4-chloro-benzyl)-4-hydroxy-2-oxo-1,2-dihydro-pyrrolo[1,2-b]pyridazine-3-carbonyl]-amino}-acetic acid]	76	66	64	–	–	–	–	–
COc1ccc(Cn2c(Cl)c(Cl)c3c(O)c(C(=O)NCC(=O)O)nc(C#N)c32)cc1 [Compound Q, {[2,3-Dichloro-7-cyano-4-hydroxy-1-(4-methoxy-benzyl)-1H-pyrrolo[2,3-c]pyridine-5-carbonyl]-amino}-acetic acid]	70	59	50	–	–	–	–	–
C[C@H](NC(=O)c1c(O)c2cc(Cl)cn2n(Cc2ccc(C(F)(F)F)cc2)c1=O)C(=O)O [Compound H, (S)-2-{[6-Chloro-4-hydroxy-2-oxo-1-(4-trifluoromethyl-benzyl)-1,2-dihydro-pyrrolo[1,2-b]pyridazine-3-carbonyl]-amino}-propionic acid]	73	74	77	–	–	–	–	–
CCCCCCOc1ccc2oc(=O)c(C(=O)NCC(=O)O)c(O)c2c1 [Compound K, [(6-Hexyloxy-4-hydroxy-2-oxo-2H-chromene-3-carbonyl)-amino]-acetic acid]	72	43	56	–	–	–	–	–
COc1cc(F)cc(Oc2ccc3c(O)c(C(=O)NCC(=O)O)ncc3c2)c1 [Compound D, {[7-(3-Fluoro-5-methoxy-phenoxy)-4-hydroxy-isoquinoline-3-carbonyl]-amino}-acetic acid]	79	74	61	–	–	–	–	–
Cc1ccc(Oc2cccc3c(C#N)nc(C(=O)NCC(=O)O)c(O)c23)cc1 [Compound B, [(1-Cyano-4-hydroxy-5-p-tolyloxy-isoquinoline-3-carbonyl)-amino]-acetic acid]	–	–	–	76	54	16	–	–
N#Cc1nc(C(=O)NCC(=O)O)c(O)c2ccn(Cc3ccc(-c4ccccc4)cc3)c12 [Compound P, [(1-Biphenyl-4-ylmethyl-7-cyano-4-hydroxy-1H-pyrrolo[2,3-c]pyridine-5-carbonyl)-amino]-acetic acid]	–	–	–	79	80	77	–	–
CCCCOc1ccc2c(O)c(C(=O)NCC(=O)O)c(=O)sc2c1 [Compound M, [(7-Butoxy-4-hydroxy-2-oxo-2H-thiochromene-3-carbonyl)-amino]-acetic acid]	74	57	59	–	–	–	–	–
COc1ccc(-c2ccc3c(O)c(C(=O)NCC(=O)O)c(=O)sc3c2)cc1 [Compound L, {[4-Hydroxy-7-(4-methoxy-phenyl)-2-oxo-2H-thiochromene-3-carbonyl]-amino}-acetic acid]	75	59	64	–	–	–	–	–
Cc1ccc(Oc2cccc3c(O)c(C(=O)NCC(=O)O)nc(-c4cccnc4)c23)cc1 [Compound C, [(4-Hydroxy-1-pyridin-3-yl-8-p-tolyloxy-isoquinoline-3-carbonyl)-amino]-acetic acid]	–	–	–	61	51	16	–	–
N#Cc1nc(C(=O)NCC(=O)O)c(O)c2ccn(Cc3ccccc3F)c12 [Compound O, {[7-Cyano-1-(2-fluoro-benzyl)-4-hydroxy-1H-pyrrolo[2,3-c]pyridine-5-carbonyl]-amino}-acetic acid]	74	53	52	–	–	–	–	–
CCCCCCCCc1ccc(CCC(N)(CO)CO)cc1 [FTY-720, reference compound]	–	–	–	–	–	–	prevented the development of EAE disease	7/7
